Measured values: patent US10034476B2, “Insecticidal phenyl-or pyridyl-piperdine compounds” (Syngenta Participations AG, priority 2008, dated 2018)

Experiments:
Format in all cases: in vivo
Heliothis virescens = Heliothis virescens (tobacco budworm) egg/artificial diet test; details: 96 h, 200 ppm (concentration in well 18 ppm), eggs 0-24 h old on artificial diet, 4 days, egg mortality, larval mortality, growth regulation
Procedure: Heliothis virescens (Tobacco Budworm): Eggs (0-24 h old) were placed in 24-well microtiter plate on artificial diet and treated with test solutions at an application rate of 200 ppm (concentration in well 18 ppm) by pipetting. After an incubation period of 4 days, samples were checked for egg mortality, larval mortality, and growth regulation.

Plutella xylostella = Plutella xylostella (diamond back moth) artificial diet test; details: 144 h, 200 ppm (concentration in well 18 ppm), L2 larvae, 6 days, larval mortality, growth regulation
Procedure: (§1) Plutella xylostella (Diamond Back Moth): 24-well microtiter plate (MTP) with artificial diet was treated with test solutions at an application rate of 200 ppm (concentration in well 18 ppm) by pipetting. After drying, the MTP's were infested with L2 larvae (7-12 per well). After an incubation period of 6 days, samples were checked for larval mortality and growth regulation.

Spodoptera littoralis = Spodoptera littoralis (Egyptian cotton leafworm) cotton leaf disc spray test; details: foliar, 72 h, 200 ppm spray on cotton leaf discs, L1 larvae, 3 DAT, mortality, feeding behavior, growth regulation
From the text: Spodoptera littoralis (Egyptian Cotton Leafworm) Cotton leaf discs were placed on agar in a 24-well microtiter plate and sprayed with test solutions at an application rate of 200 ppm. After drying, the leaf discs were infested with 5 L1 larvae. The samples were checked for mortality, feeding behavior, and growth regulation 3 days after treatment (DAT).

Diabrotica balteata = Diabrotica balteata (corn root worm) artificial diet test; details: 120 h, 200 ppm (concentration in well 18 ppm), L2 larvae, 5 days, larval mortality, growth regulation
Procedure: as §1, with “Diabrotica Balteata (Corn Root Worm): A” for “Plutella xylostella (Diamond Back Moth):”, “with” for “with L2”, “(L2) (6-10” for “(7-12”, “5” for “6”, “mortality,” for “mortality”

Measured: pest or weed control at 200 ppm

O=C(Nc1cc(F)c(F)cc1C1CCN(Cc2ccc(-c3ccc(F)cc3)cc2)CC1)c1ccnc(Cl)c1 [Compound A3, 2-chloro-N-{4,5-difluoro-2-[1-(4′-fluoro-biphenyl-4-ylmethyl)-piperidin-4-yl]-phenyl}-isonicotinamide]
≥ 80%: all assays above

O=C(Nc1cc(F)c(F)cc1C1CC[N+]([O-])(Cc2ccc(-c3ccc(F)cc3)cc2)CC1)c1ccnc(Cl)c1 (centres unmarked) [Compound B1, 2-chloro-N-{4,5-difluoro-2-[1-(4′-fluoro-biphenyl-4-ylmethyl)-1-oxy-piperidin-4-yl]-phenyl}-isonicotinamide]
≥ 80%: all assays above

O=C(Nc1cc(F)c(Br)nc1C1CCN(Cc2ccc(-c3ccc(F)cc3)cc2)CC1)c1ccnc(Cl)c1 [Compound C5, N-[6-bromo-5-fluoro-1′-(4′-fluoro-biphenyl-4-ylmethyl)-1′,2′,3′,4′,5′,6′-hexahydro-[2,4′]bipyridinyl-3-yl]-2-chloro-isonicotinamide]
≥ 80%: all assays above

O=C(Nc1ccc(C(F)F)nc1C1CCN(Cc2ccc(-c3ccc(F)cc3)cc2)CC1)c1ccnc(Cl)c1 [Compound C6]
≥ 80%: all assays above

O=C(Nc1cc(Cl)c(OCC(F)(F)F)nc1C1CCN(Cc2ccc(-c3ccc(F)cc3)cc2)CC1)c1ccnc(Cl)c1 [Compound C9, 2-chloro-N-[5-chloro-1′-(4′-fluoro-biphenyl-4-ylmethyl)-6-(2,2,2-trifluoro-ethoxy)-1′,2′,3′,4′,5′,6′-hexahydro-[2,4′]bipyridinyl-3-yl]-isonicotinamide]
≥ 80%: all assays above

COc1ccc(NC(=O)c2ccnc(Cl)c2)c(C2CCN(Cc3ccc(-c4ccc(F)cc4)cc3)CC2)n1 [Compound C10, 2-chloro-N-[1′-(4′-fluoro-biphenyl-4-ylmethyl)-6-methoxy-1′,2′,3′,4′,5′,6′-hexahydro-[2,4′]bipyridinyl-3-yl]-isonicotinamide]
≥ 80%: all assays above

C=Cc1ccc(NC(=O)c2ccnc(Cl)c2)c(C2CCN(Cc3ccc(-c4ccc(F)cc4)cc3)CC2)n1 [Compound C11, 2-chloro-N-[1′-(4′-fluoro-biphenyl-4-ylmethyl)-6-vinyl-1′,2′,3′,4′,5′,6′-hexahydro-[2,4′]bipyridinyl-3-yl]-isonicotinamide]
≥ 80%: all assays above

O=C(Nc1cc(Cl)c(C2CC2)nc1C1CCN(Cc2ccc(-c3ccc(F)cc3)cc2)CC1)c1ccnc(Cl)c1 [Compound C13, 2-chloro-N-[5-chloro-6-cyclopropyl-1′-(4′-fluoro-biphenyl-4-ylmethyl)-1′,2′,3′,4′,5′,6′-hexahydro-[2,4′]bipyridinyl-3-yl]-isonicotinamide]
≥ 80%: all assays above

O=C(Nc1cc(C(F)(F)F)c(Br)nc1C1CCN(Cc2ccc(-c3ccc(F)cc3)cc2)CC1)c1ccnc(Cl)c1 [Compound C15]
≥ 80%: all assays above

O=C(Nc1cc(C(F)(F)F)c(Cl)nc1C1CCN(Cc2ccc(-c3ccc(F)cc3)cc2)CC1)c1ccnc(Cl)c1 [Compound C16]
≥ 80%: all assays above

O=C(Nc1cc(F)c(Cl)nc1C1CCN(Cc2ccc(-c3ccc(F)cc3)cc2)CC1)c1ccnc(Cl)c1 [Compound C17, 2-chloro-N-[6-chloro-5-fluoro-1′-(4′-fluoro-biphenyl-4-ylmethyl)-1′,2′,3′,4′,5′,6′-hexahydro-[2,4′]bipyridinyl-3-yl]-isonicotinamide]
≥ 80%: all assays above

O=C(Nc1cc(Br)cnc1C1CCN(Cc2ccc(-c3ccc(F)cc3)cc2)CC1)c1ccnc(Cl)c1 [Compound C23, N-[5-bromo-1′-(4′-fluoro-biphenyl-4-ylmethyl)-1′,2′,3′,4′,5′,6′-hexahydro-[2,4′]bipyridinyl-3-yl]-2-chloro-isonicotinamide]
≥ 80%: all assays above

O=C(Nc1cc(Br)c(Cl)nc1C1CCN(Cc2ccc(-c3ccc(F)cc3)cc2)CC1)c1ccnc(Cl)c1 [Compound C24, N-[5-bromo-6-chloro-1′-(4′-fluoro-biphenyl-4-ylmethyl)-1′,2′,3′,4′,5′,6′-hexahydro-[2,4′]bipyridinyl-3-yl]-2-chloro-isonicotinamide]
≥ 80%: all assays above

O=C(Nc1cc(F)c(F)nc1C1CCN(Cc2ccc(-c3ccc(F)cc3)cc2)CC1)c1ccnc(Cl)c1 [Compound C25, 2-chloro-N-{1′-(4′-fluoro-biphenyl-4-ylmethyl)-5,6-difluoro-1′,2′,3′,4′,5′,6′-hexahydro-[2,4′]bipyridinyl-3-yl}-isonicotinamide]
≥ 80%: all assays above

Cc1cc(NC(=O)c2ccnc(Cl)c2)c(C2CCN(Cc3ccc(-c4ccc(F)cc4)cc3)CC2)nc1Cl [Compound C26, 2-chloro-N-[6-chloro-1′-(4′-fluoro-biphenyl-4-ylmethyl)-5-methyl-1′,2′,3′,4′,5′,6′-hexahydro-[2,4′]bipyridinyl-3-yl]-isonicotinamide]
≥ 80%: all assays above

O=C(Nc1c(C2CCN(Cc3ccc(-c4ccc(F)cc4)cc3)CC2)nc(Cl)c(Cl)c1Cl)c1ccnc(Cl)c1 [Compound C30, 2-chloro-N-{4,5,6-trichloro-1′-(4′-fluoro-biphenyl-4-ylmethyl)-1′,2′,3′,4′,5′,6′-hexahydro-[2,4′]bipyridinyl-3-yl}-isonicotinamide]
≥ 80%: all assays above

O=C(Nc1cc(C(F)(F)F)c(F)nc1C1CCN(Cc2ccc(-c3ccc(F)cc3)cc2)CC1)c1ccnc(Cl)c1 [Compound C31, 2-chloro-N-{1′-(4′-fluoro-biphenyl-4-ylmethyl)-6-fluoro-5-trifluoromethyl-1′,2′,3′,4′,5′,6′-hexahydro-[2,4′]bipyridinyl-3-yl}-isonicotinamide]
≥ 80%: all assays above

O=C(Nc1ccc(OC(F)F)nc1C1CCN(Cc2ccc(-c3ccc(F)cc3)cc2)CC1)c1ccnc(Cl)c1 [Compound C40, 2-chloro-N-{1′-(4′-fluoro-biphenyl-4-ylmethyl)-6-difluoromethoxy-1′,2′,3′,4′,5′,6′-hexahydro-[2,4′]bipyridinyl-3-yl}-isonicotinamide]
≥ 80%: all assays above

O=C(Nc1c(F)cc(C(F)(F)F)nc1C1CCN(Cc2ccc(-c3ccc(F)cc3)cc2)CC1)c1ccnc(Cl)c1 [Compound C41, 2-chloro-N-{1′-(4′-fluoro-biphenyl-4-ylmethyl)-4-fluoro-6-trifluoromethyl-1′,2′,3′,4′,5′,6′-hexahydro-[2,4′]bipyridinyl-3-yl}-isonicotinamide]
≥ 80%: all assays above

O=C(Nc1ccc(C(F)(F)F)nc1C1CC[N+]([O-])(Cc2ccc(-c3ccc(F)cc3)cc2)CC1)c1ccnc(Cl)c1 (centres unmarked) [Compound D1, 2-chloro-N-[1′-(4′-fluoro-biphenyl-4-ylmethyl)-1′-oxy-6-trifluoromethyl-1′,2′,3′,4′,5′,6′-hexahydro-[2,4′]bipyridinyl-3-yl]-isonicotinamide]
≥ 80%: all assays above
